Assay results published in PMC3599355, “Discovery and characterization of a highly efficient enantioselective mandelonitrile hydrolase from Burkholderia cenocepacia J2315 by phylogeny-based enzymatic substrate specificity prediction” (BMC Biotechnology, 2013).

Biological target: T1, BCJ2315 (Burkholderia cenocepacia, UniProt B4E7T0)
T1 construct: gene BCAL2585; full-length gene in pQE30 (BamHI/HindIII), His-tag kept, E. coli M15; 37 kDa subunit, native about 450 kDa, 12 identical subunits
Assay: HPLC hydrolysis assay, Lineweaver-Burk
Format: biochemical
Settings: standard assay: 100 mM sodium phosphate pH 7.0, 30 °C; mandelonitrile 0.1 to 15 mM; stereo form not stated

T1 sequence (B4E7T0 entry or part of it): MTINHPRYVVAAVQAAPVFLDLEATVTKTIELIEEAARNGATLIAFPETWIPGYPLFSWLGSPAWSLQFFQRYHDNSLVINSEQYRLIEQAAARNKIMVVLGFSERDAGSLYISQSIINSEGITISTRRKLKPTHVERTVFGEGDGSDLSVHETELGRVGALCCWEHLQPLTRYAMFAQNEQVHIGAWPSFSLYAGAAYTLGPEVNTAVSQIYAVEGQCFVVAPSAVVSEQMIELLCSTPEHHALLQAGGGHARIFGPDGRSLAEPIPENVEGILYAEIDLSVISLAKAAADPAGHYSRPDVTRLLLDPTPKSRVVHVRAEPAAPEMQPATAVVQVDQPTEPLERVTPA

N#CC(O)c1ccccc1 (stereo not shown) [mandelonitrile]
Km: 140 µM
